Results: patent US20130071328A1, “Propynoic Acid Carbamoyl Methyl-Amides and Pharmaceutical Compositions and Methods Based Thereon” (UNIVERSITY OF SOUTHERN CALIFORNIA, priority 2011, published 2013)
“Also recorded” adds a separate entry of the source.

Experiments:
[1] = tested on: HCT116 p53^+/+ colon cancer cell line; assay: MTT cytotoxicity assay, HCT116 p53+/+; format: cell-based; details: Homo sapiens, HCT-116, 72 h exposure
Source text: (§1) The human breast cancer cell line MDA-MB-435 and the colon cancer cell line HT29 were purchased from the American Type Cell Culture (Manassas, Va.). Colon cancer cell lines HCT116 p53^+/+ and HCT116 p53^−/− were kindly provided by Dr. Bert Vogelstein (Johns Hopkins Medical Institutions, Baltimore, Md.). The human ovarian carcinoma cell line (HEY), naturally resistant to cisplatin (CDDP), was kindly provided by Dr. Louis Dubeau (USC Norris Cancer Center). The bladder cancer cell lines were kindly provided by Dr. Richard Cote (USC Keck School of Medicine). Cells were maintained as monolayer cultures in the appropriate media: RPMI-1640 (HT29, HCT116 p53^+/+, HCT116 p53^−/−, and HEY cell lines) or DMEM (MDA-MB-435 and UMUC3 cell lines) supplemented with 10% fetal bovine serum (FBS) (HyClone, Road Logan, Utah) at 37° C. in a humidified atmosphere of 5% CO2. To remove the adherent cells from the flask for subculture and counting, cells were washed with PBS without calcium or magnesium, incubated with a small volume of 1×trypsin-EDTA solution (Sigma-Aldrich, St. Louis, Mo.) for 5 min, resuspended with fresh culture medium, and centrifuged at 1200 rpm for 5 min. All experiments were performed using cells in exponential growth phase. Cells were routinely checked for Mycoplasma contamination using PlasmaTest kit (InvivoGen, San Diego, Calif.).
(§2) Cytotoxicity was assessed by MTT assay as described previously. 43 In brief, cells were seeded in 96-well microtiter plates and allowed to attach overnight. Cells were subsequently treated with continuous exposure to corresponding drugs for 72 h. At the end of treatments, an MTT solution (at a final concentration of 0.5 mg/mL) was added to each well, and cells were incubated for 4 h at 37° C. After removal of the supernatant, DMSO was added, and the absorbance was read at 570 nm. All assays were done in triplicate. The IC50 was then determined for each drug from a plot of log(drug concentration) versus percentage of cells killed.

[2] = tested on: UMUC3 bladder cancer cell line; assay: MTT cytotoxicity assay, UMUC3; format: cell-based; details: Homo sapiens, 72 h exposure
Source text: as §1, §2

MDA-MB-435 cells [3] = assay: Apoptosis assay, annexin V/propidium iodide flow cytometry; format: cell-based, human; details: for induction of apoptosis: 24 and 48 hours
Method: To quantify drug-induced apoptosis, annexin V/propidium iodide staining was performed and analyzed by flow cytometry. MDA-MB-435 cells were treated with 10 μM compound 1, 2, or 4 for 24 and 48 h. After treatment, both floating and adherent cells were combined and subjected to annexin V/propidium iodide staining using an annexin V-FITC apoptosis detection kit (Oncogene Research Products, San Diego, Calif.) according to manufacturer's recommendations. Untreated control cells (48 h) were maintained in parallel to drugtreated groups. Double staining was used to distinguish between viable, early apoptotic, and necrotic or late apoptotic cells. The resulting fluorescence (FITC-A channel for green fluorescence and PE-A channel for red fluorescence) was measured by flow cytometry using a BD LSRII flow cytometer (BD Biosciences, San Jose, Calif.).

[4] = tested on: HEY ovarian cancer cell line; assay: Cytotoxicity assay, HEY; format: cell-based; details: Homo sapiens; MTT, 72 h exposure (Table 2)
Source text: as §1, §2

[5] = tested on: doxorubicin-resistant NCI/ADR-RES ovarian cancer cell line; assay: Cytotoxicity assay, NCI/ADR-RES; format: cell-based; details: Homo sapiens, MTT, 72 h exposure (Table 2)
Method: as §2

[6] = tested on: HCT116 p53^−/− colon cancer cell line; assay: MTT cytotoxicity assay, HCT116 p53-/-; format: cell-based; details: Homo sapiens, HCT-116, 72 h exposure
Source text: as §1, §2

[7] = tested on: 5637 bladder cancer cell line; assay: MTT cytotoxicity assay, 5637; format: cell-based, human; details: for IC50: Homo sapiens, 72 h exposure
Source text: as §1, §2

[8] = tested on: HT29 colon cancer cell line; assay: MTT cytotoxicity assay, HT29; format: cell-based; details: Homo sapiens, HT-29, 72 h exposure
Source text: as §1, §2

MDA-MB-435 cells [9] = assay: Mitochondrial superoxide production (MitoSOX Red); format: cell-based, human; details: for mitochondrial superoxide production, flow cytometry: IC50 or 3×IC50, 24 hours
Method: After drug treatments, a solution of 5 μM MitoSOX Red mitochondrial superoxide indicator (Invitrogen, Carlsbad, Calif.) was added, and cells were incubated for 10 min at 37° C. Cells were then washed three times with Hank's balanced salt solution (HBSS) to remove excess MitoSOX. After washing, cells were either observed under the fluorescence microscope or collected by trypsinization, washed twice with HBSS, and measured for superoxide production using a BD LSRII flow cytometer (BD Biosciences, San Jose, Calif., USA). Data were analyzed with the BD FACSDiva software package (BD Biosciences, San Jose, Calif., USA).

MDA-MB-435 xenograft = assay: MDA-MB-435 mouse xenograft model; format: in vivo
Method: To investigate the in vivo efficacy of these compounds, we selected compound 2 and evaluated its anticancer activity in a nude mouse xenograft model using MDA-MB-435 cells. Animals were treated with daily intraperitoneal (i.p.) injections of DMSO in sesame oil (vehicle control) or compound 2 at 10 mg/kg for 9 days, followed by 20 mg/kg for 5 days and concluding with 40 mg/kg for 12 days. After 26 days of dosing, the drug treatment was discontinued. Mice were monitored daily for an additional 17 days, and tumors were measured twice per week. FIG. 4A summarizes the tumor volume (mean±SEM) of the treatment groups throughout the observation time.
Sixteen virgin female athymic nude (nu/nu) mice (Simonsen Laboratory Inc., Gilroy, Calif.) were used for in vivo efficacy testing. […]
Human breast cancer MDA-MB-435 cells in logarithmic phase growth from in vitro cell culture were inoculated subcutaneously on the rear flank of the mice (1.5×10^6 cells/mouse) under aseptic conditions. Tumor growth was assessed twice weekly by measuring tumor diameters with a Vernier caliper (length×width). Tumor weight was calculated according to the formula: TW (mg)=tumor volume (mm^3)=d^2×D/2, where d and D are the shortest and longest diameters, respectively. […]
Eight mice were assigned to each group and the results were expressed as the mean±SEM. […]

MDA-MB-435 cells [10] = assay: Cell cycle analysis by propidium iodide flow cytometry; format: cell-based, human
Method: Cell cycle perturbations were analyzed by propidium iodide DNA staining. Exponentially growing MDA-MB-435 cells were treated with 5 μM compound 4 for 6, 12, and 24 h. At the end of treatment, cells were collected and washed with 1×PBS after a gentle centrifugation at 1500 rpm for 5 min. Cells were then thoroughly resuspended in 0.5 mL of PBS and fixed in 70% ethanol overnight at 4° C. Ethanol-fixed cells were centrifuged at 3000 rpm for 5 min and washed twice in PBS to remove residual ethanol. For cell cycle analysis, the pellets were resuspended in 1 mL of PBS containing 0.02 mg/mL of propidium iodide and 0.5 mg/mL of DNase-free RNase A and incubated at 37° C. for 30 min. Cell cycle profiles were obtained using a BD LSRII flow cytometer (BD Biosciences, San Jose, Calif.). Propidium iodide was excited using a 488 nm blue argon laser. Resulting fluorescence was measured using a PMT detector equipped with 550 nm long pass dichroic mirror and 575/26 bandpass filter. Data were analyzed with the ModFit LT software package (Verify Software House, Inc., Topsham, Me.).

[11] = Pharmacokinetics study after i.p. administration; format: in vivo, mice; details: mouse, ip
Method: To assess the efficacy, tolerability, and pharmacokinetics of these novel compounds following i.p. administration, the pharmacokinetic profile of compounds 4 and 9 was evaluated (Table 3). Mice were treated with compounds 4 and 9 via i.p. injection and serial blood sampling was determined at indicated times after administration. The plasma concentration was determined using a validated liquid chromatography mass spectrometry (LC-MS) method where the lowest level of quantification was 1 ng/mL. One hour following i.p. administration of compounds 4 and 9, their concentrations in the blood were 344 and 6.2 ng/mL, respectively. […] The half-lives of compounds 4 and 9 via i.p. administration were determined to be approximately 3.5 and 9.3 hours, respectively, when a non-compartmental pharmacokinetics analysis was used. The favorable pharmacokinetics profile of compounds 4 and 9 is consistent with the ADMET predictions described previously.
Preliminary pharmacokinetics of compounds 4 and 9 were performed using 18 mice, each time point consisting of two mice. Mice were stratified to various doses given as an i.p. injection of compounds 4 and 9 (24 mg/kg). At the specified time points following drug administration, blood was collected with heparinized syringes. The samples were allowed to settle in 500 μL eppendorf vials and then centrifuged at 1500 rpm for 10 min. The plasma was removed, transferred into new eppendorf tube, and frozen at −80° C. until analysis.

panel of cancer cells = assay: MTT cytotoxicity of compound 4 across tested cell lines (FIG. 2B); format: cell-based; details: Homo sapiens, MTT assays
Method: as §2

[12] = tested on: MDA-MB-435 breast cancer cell line; assay: MTT cytotoxicity assay, MDA-MB-435; format: cell-based, human
Source text: as §1, §2

| SMILES | IC50 [1] [µM] | IC50 [2] [µM] | percentage of late apoptotic cells (MDA-MB-435 cells [3]; 10 μM, 48 hours) [%] | induction of apoptosis (MDA-MB-435 cells [3]) | IC50 [4] [µM] | IC50 [5] [µM] | IC50 [6] [µM] | IC50 [7] [µM] | IC50 [8] [µM] | mitochondrial superoxide production, flow cytometry (MDA-MB-435 cells [9]) | also measured |
| --- | --- | --- | --- | --- | --- | --- | --- | --- | --- | --- | --- |
| C#CC(=O)N(c1cccc(C(F)(F)F)c1)C(C(=O)NC1CCCC1)c1cccc(OC)c1 (stereo not shown) [Compound 2, N-[2-(Cyclopentylamino)-1-(3-methoxyphenyl)-2-oxoethyl]-N-[3-(trifluoromethyl)phenyl]Propynamide] | > 10 | > 20 | 37 | induce apoptosis | 5.2 ± 3.4 | 0.2 ± 0.1 | 8.8 ± 0.4 | 0.6 ± 0.4 | 7.2 ± 0.2 | induce significant amounts of superoxide | induction of early apoptosis (MDA-MB-435 cells [3]; 10 μM, 24 hours): failed to induce early apoptosis; increase in early apoptotic cells (MDA-MB-435 cells [3]; 10 μM, 48 h): 8%; tumor burden (tumor volume) (MDA-MB-435 xenograft; i.p. daily 10 mg/kg 9 days, 20 mg/kg 5 days, 40 mg/kg 12 days): significantly reduced tumor burden; average body weight after treatment (MDA-MB-435 xenograft; mean±SD, after treatment, control 28±2 g): 29 ± 2 g |
| C#CC(=O)N(c1ccc(-n2cnnn2)c(C)c1)C(C(=O)NC1CCCC1)c1ccccc1F (stereo not shown) [Compound 4, N-[2-(Cyclopentylamino)-1-(2-fluorophenyl)-2-oxoethyl]-N-[3-methyl-4-(1H-tetraazol-1-yl)phenyl]Propynamide] | 6.3 ± 1.8 | 6.3 ± 1 | 62 | induce apoptosis | 1.5 ± 0.8 | 1 ± 0.3 | 5.5 ± 0.7 | 0.7 ± 0.5 | 1.8 ± 1.7 | induce significant amounts of superoxide | cell cycle perturbation (MDA-MB-435 cells [10]; 5 μM, 6, 12 and 24 hours): induced both S- and G2/M-arrest; also recorded: block cell cycle progression at both S and G2/M phases; increase in number of cells retained in G2/M phase vs untreated control (MDA-MB-435 cells [10]; 5 μM, 24 hours): 7%; increase in number of cells retained in S phase vs untreated control (MDA-MB-435 cells [10]; 5 μM, 24 hours): 10%; percentage of late apoptotic cells (MDA-MB-435 cells [3]; 10 μM, 24 hours): 27%; percentage of early apoptotic cells (MDA-MB-435 cells [3]; 10 μM, 48 hours): 24%; AUC ([11]; in vivo, 24 mg/kg): 520 ng·h/mL; Cmax ([11]; in vivo, 24 mg/kg): 344 ng/mL; Kel ([11]; in vivo, 24 mg/kg): 0.206 h⁻¹; Tmax ([11]; in vivo, 24 mg/kg): 1.0 h; half-life ([11]; in vivo, 24 mg/kg): ~3.5 h; t1/2 ([11]; in vivo, 24 mg/kg): 3.5 h; concentration at 1 h ([11]; plasma, mice, 24 mg/kg i.p., 1 hour, read-out: concentration in the blood one hour following i.p. administration): 344 ng/mL; cytotoxic potency in 5637 cells [7]: remarkable potency; IC50 (panel of cancer cells): 1 to 2.5 µM; cytotoxic potency in MDA-MB-435 cells [12]: one of the most active compounds |
| C#CC(=O)N(c1ccccc1)C(C(=O)NC1CCCCC1)c1cccs1 (stereo not shown) [Compound 18, N[2-(Cyclohexylamino)-2-oxo-1-thien-2-ylethyl]-N-phenyl Propynamide] | 14 | > 20 |  |  | > 10 | 1.3 ± 0.4 | > 20 | 3.5 ± 1.4 | > 10 | induce significant amounts of superoxide | intensity of MitoSOX staining, fluorescence microscopy (MDA-MB-435 cells [9]; 24 hours): remarkably enhanced the intensity of MitoSOX staining; IC50 ([12]; Homo sapiens, MDA-MB-435, 72 h, 72 h exposure): > 10 µM |
